System: BALB/c mice
Assay: Drug effect durability: serum glucose concentration after hypodermic injection
Type: in vivo
Conditions: 10 hours after administration under the dorsal skin, 15 μg insulin, fasted mice
Protocol: A particulate preparation enclosing 15 μg (WAKO) of insulin prepared in a method of example 9 was dispersed in 100 μL of normal saline (Otsuka), and was administered to 7-week-old male BALB/c mice (weighing 19 to 24 g) after fasting for 12 hours, under the dorsal skin by using 29 G injection needle (Terumo) (in the control group, 100 μL of normal saline (Otsuka) dissolving 15 μg of insulin was used). After administration, animals were kept fasted in individual cages, and blood samples collected from the caudal artery before and after administration were tested by biochemical automatic analyzer (Fuji Drychem 3500V of Fuji Film), by using measuring slide (GLU-WIII of Fuji Film), and changes of glucose concentration were measured at time intervals, and the average of serum glucose concentration changes of two animals each was calculated.

insulin
serum glucose concentration relative to level before administration: 80%

Reference: US20080145432A1, “Fine Particle and Pharmaceutical Preparation” (priority 2005, published 2008)
